Results on three compounds are retold here after patent US9850308B2, “Neutralization of CD95 activity blocks invasion of glioblastoma cells in vivo” (Deutsches Krebsforschungszentrum Stiftung des oeffentlichen …, priority 2006, dated 2017).

Entries after “also recorded” stand apart in the source; their conditions may differ. Residues, ends and D or L forms follow the SMILES beside them. *: point of attachment. Cbz = O=C(OCc1ccccc1)*; CH2F = FC*

The test system of assay [1] is T98G cells. The assay can be described thus: Migration assay (collagen-coated transwell / two dimensional migration assay). Conditions: T98G cells stimulated with α-Apo-1 (2 μg/ml) or LZ-CD95L (5 ng/ml). It counts as cell-based, human. The protocol:
Migration of the glioma cells in vitro was measured by the migration through Collagen 1-coated (Chemicon) transwell inserts (Falcon). 5×10^4 cells were plated in 200 μl medium onto collagen-coated (50 μg/ml) transwell inserts with 8 μm pore size. Cells were either γ-irradiated before plating or treated after plating with α-Apo1 (2 μg/ml or 0.1 μg/ml+ProteinA for cross linking), LZ-CD95L (5 ng/ml), Nok1 (50 ng)/LZ-CD95L (5 ng/ml), Nok1 (50 ng) LZ-Supernatant (SN, 5 ng/ml), CD95L (10 ng/ml) and CD95L-T34. Preferably 24 h after plating the cells were starved with basal DMEM for additional 24 h before they were treated. The number of completely migrated cells was counted at 12 h, 24 h and 36 h after treatment. In every experiment triplicates were counted for each treatment.
2.5×10^5 cells were plated onto 6 cm culture dishes 12 h prior to irradiation. […]
Knockdown experiments were performed by transient transfection with Lipofectamine 2000™ (Invitrogen Life Technologies) following the instruction manual. […] After transient transfection with the different siRNAs cells were cultured for 72 h before treated with CD95LT4 (10 ng/ml and 20 ng/ml), migration was analyzed 24 h after treatment with a two dimensional migration assay. The knockdown was controlled by quantitative real-time PCR and FACS. […] Migration was measured 24 h after treatment in a two dimensional migration assay.

Assay [2] concerns GSK3β. Briefly: Phosphorylation (inhibition) of GSK3β, Western Blot. Conditions: T98G cells, pre-treatment before CD95 stimulation. Type of assay: cell-based, human. The protocol: The MAPK inhibitor, PD98059 (25 μM), the PI3K inhibitor […] (25 μM) and the pancaspase inhibitor zVAD-fmk (40 μM) were purchased from Calbiochem. The ILK inhibitor (20 μM) was kindly provided from S. Dedhar. Cells were preincubated with inhibitors 30 minutes (LY 290059 and zVAD-fmk) prior to treatment with either CD95L-T4 or αApo-1. Generation of Leucinezipper-CD95L (LZCD95L) was performed as previously described^41. The blocking agents (zVAD-fmk, PD98059, LY 290059 and KP-SD1) were given 30 minutes before treatment with LZ-CD95L or αApo-1. Cells were lysed for further biochemical analysis. Protein extraction and immunoblotting was performed as previously described^41.

Assay [3] relates to Jurkat A3 permanent human T-cell line. Briefly: Jurkat apoptosis assay (Caspase 3/7 activity). Type of assay: cell-based. Conditions: Jurkat cells, 250 ng/ml CD95L-T4, 30 min preincubation.

For `COc1cccc(-c2cc(=O)c3ccccc3o2)c1N` [PD98059], the results for the “blockade of CD95-induced migration” value in assay [1] and in assay [1] (listed as PD 98059) were “did not interfere with CD95-induced migration” and “did not interfere with the CD95-induced migration”, respectively.
On to `COC(=O)C[C@H](NC(=O)[C@H](C)NC(=O)[C@@H](NC(=O)OCc1ccccc1)C(C)C)C(=O)CF` [zVAD-fmk] (Cbz-Val-Ala-Asp(OMe)-CH2F), for which the results for the “blockade of CD95-induced GSK3β phosphorylation/inhibition” value in assay [2] and in assay [2] (listed as zVAD.fmk) were “did not prevent GSK3β phosphorylation; also recorded: did not interfere with α-Apo-1 (2 μg/ml)-induced inhibition of GSK3β” and “did not block ser9 phosphorylation of GSK3β”, respectively.
Regarding “APG101: fusion protein of the extracellular domain of the human CD95-receptor with human Fc, SEQ ID NO:1”, the “antagonism of CD95L-T4-induced apoptosis” value was “antagonizes the apoptosis inducing effect of CD95L; also recorded: antagonized by APG101 in a dose dependent manner” in assay [3] and “antagonizes the apoptosis inducing activity of CD95L-T4” in assay [3] (listed as AP-G101).
